“And” between values parts separate entries of the source, which are not always exact repeats. Equal values may be shown once. Read-outs that look alike come from different tables or passages of the source.
Key:
[1] = tested on: variant of TAR (SEQ ID NO:14) which does not bind tat; assay: RNA gel mobility shift assay with non-functional TAR variant (specificity); format: binding, HIV; settings: functional TAR fragment vs non-functional TAR variant
Description: (§1) TAR-binding affinity of the oligopeptides relative to HIV tat(1-86) and relative to tat fragments representing the tat basic domain, was evaluated by RNA gel mobility shift assay using as ligand a truncated functional form of TAR RNA having the sequence (SEQ ID NO:13) shown below.
Synthesis of the TAR fragment and its variant analogue was accomplished as described by Roy et al. in Genes and Development, 1990, 4:1365. The TAR-binding assay was also performed in the manner reported by Roy et al, supra, which is incorporated herein by reference.

HIV (strain NL4-3) = format: cell-based; settings: for PH Titers: HuT78 cells, 5 uM pretreatment, 10 uM after infection
Source text: Controls used water in place of peptide.

[2] = tested on: truncated functional form of TAR RNA (SEQ ID NO:13); assay: RNA gel mobility shift TAR-binding assay; parameters: species or system HIV; settings: relative to tat (1-86) and the oligopeptide representing the tat basic domain
Description: This assay generally involves the incubation of a selected oligopeptide with gel-purified, radio-labelled TAR RNA, or tat-binding fragment of TAR RNA, that has been produced either by direct synthesis or through transcription of a corresponding DNA template. Samples are loaded onto non-denaturing polyacrylamide gel and subjected to electrophoresis, and then migration of labelled RNA through the gel is visualized on gel-exposed, X-ray film. Oligopeptides which bind TAR are identified in this assay by their characteristic, retarded migration on the gel, relative to TAR RNA to which no oligopeptide has bound. In this mobility shift assay, oligopeptides having an "enhanced" affinity for binding TAR RNA will resolve on the gel as bands which, in addition to displaying the retarded migration pattern characteristic of TAR-binding oligopeptides, will also appear with greater intensity and/or size than a band containing TAR RNA bound to tat (1-86).
as §1
Synthesis of the TAR fragment and its variant analogue was accomplished as described by Roy et al. in Genes and Development, 1990, 4:1365. […]

yeast tRNA = assay: TAR binding compared with yeast tRNA binding
HuT78 cells = assay: Host cell replication in presence of peptide
tat = settings: Green et al, Cell 1989, 58:215; cited from earlier work

Compound: CC(=O)N[C@H](CCCNC(=N)N)C(=O)N[C@H](CCCNC(=N)N)C(=O)N[C@H](CCCNC(=N)N)C(=O)N[C@H](CCCNC(=N)N)C(=O)N[C@H](CCCNC(=N)N)C(=O)N[C@H](CCCNC(=N)N)C(=O)N[C@H](CCCNC(=N)N)C(=O)N[C@H](CCCNC(=N)N)C(=O)N[C@H](CCCNC(=N)N)C(N)=O [4C, acetyl-[D-Arg]9 --NH2]
- specificity for binding to the functional TAR fragment relative to the TAR variant [1]: specificity comparable to the wild type basic domain
- PH Titers (HIV (strain NL4-3); 7 Day Pretreatment, Day 4 after infection, listed as 4C1): 168.4 pg/mL and 98.08 pg/mL
- PH Titers (HIV (strain NL4-3); 7 Day Pretreatment, Day 4 after infection, listed as 4C2): 131.5 pg/mL and 93.76 pg/mL
- PH Titers (HIV (strain NL4-3); 14 Day Pretreatment, Day 4 after infection, listed as 4C1): 152.5 pg/mL
- PH Titers (HIV (strain NL4-3); 14 Day Pretreatment, Day 4 after infection, listed as 4C2): 129.0 pg/mL
- PH Titers (HIV (strain NL4-3); 14 Day Pretreatment, Day 7 after infection, listed as 4C1): 175.1 pg/mL
- PH Titers (HIV (strain NL4-3); 14 Day Pretreatment, Day 7 after infection, listed as 4C2): 133.6 pg/mL
- inhibition of viral replication, as measured by p24 assay (HIV (strain NL4-3); at the concentration tested (5 uM), FIG. 1): ≥ 95%
- TAR-binding affinity [2]: TAR-binding affinity comparable to the basic domain of wild type tat
- specificity of TAR binding compared with yeast tRNA binding (yeast tRNA): specificity of binding has also been confirmed
- inhibition of host cell replication (HuT78 cells; 5 uM): no apparent inhibition of host cell replication
- effect on cell replication (HuT78 cells; 100 uM, separate experiments): no significant detrimental effect on cell replication

Compound: CC(=O)N[C@H](CCCNC(=N)N)C(=O)N[C@H](CCCCN)C(=O)N[C@H](CCCCN)C(=O)N[C@H](CCCNC(=N)N)C(=O)N[C@H](CCCNC(=N)N)C(=O)N[C@H](CCC(N)=O)C(=O)N[C@H](CCCNC(=N)N)C(=O)N[C@H](CCCNC(=N)N)C(=O)N[C@H](CCCNC(=N)N)C(N)=O [4G, acetyl-[D-(Arg--Lys--Lys--Arg--Arg--Gln--Arg--Arg--Arg)]--NH2]
- HIV inhibition / resistance to viral infection (HIV (strain NL4-3); 5 uM concentration): positive effects on HIV inhibition
- PH Titers (HIV (strain NL4-3); 7 Day Pretreatment, Day 4 after infection, listed as 4G1): 312.1 pg/mL
- PH Titers (HIV (strain NL4-3); 7 Day Pretreatment, Day 4 after infection, listed as 4G2): 336.1 pg/mL
- PH Titers (HIV (strain NL4-3); 7 Day Pretreatment, Day 7 after infection, listed as 4G1): 371.5 pg/mL
- PH Titers (HIV (strain NL4-3); 7 Day Pretreatment, Day 7 after infection, listed as 4G2): 446.8 pg/mL
- PH Titers (HIV (strain NL4-3); 24 Hrs Pretreatment, Day 4 after infection, listed as 4G1): 340.9 pg/mL
- PH Titers (HIV (strain NL4-3); 24 Hrs Pretreatment, Day 4 after infection, listed as 4G2): 356.9 pg/mL
- PH Titers (HIV (strain NL4-3); 24 Hrs Pretreatment, Day 7 after infection, listed as 4G1): 721.1 pg/mL
- PH Titers (HIV (strain NL4-3); 24 Hrs Pretreatment, Day 7 after infection, listed as 4G2): 851.8 pg/mL

Compound: Arg--Lys--Lys--Arg--Arg--Gln--Arg--Arg--Arg
- tat antagonist activity (tat): Weak tat antagonist activity

Source: patent publication US5789531A, “Peptide-based inhibitors of HIV replication” (Allex Biopharmaceuticals, Inc., priority 1995, dated 1998)
